Experimental data: patent US20240002351A1, “QUINAZOLIN-4-ONE AND THIENO[2,3-D]PYRIMIDIN-4-ONE INHIBITORS OF ERBB4 (HER4) FOR USE IN THE TREATMENT OF CANCER” (UNIVERSITEIT ANTWERPEN, priority 2021, published 2024)

Experiments:
C57BL/6N male mice = assay: In vivo anti-fibrotic capacity, Angiotensin II left ventricular remodeling mouse model
Experimental: Left ventricular (LV) remodeling was induced in 13-week old C57BL/6N male mice by Angiotensin II (AngII, 1000 ng/kg/min, Sigma Aldrich) using a subcutaneous micro-osmotic pump (model 1004, Alzet). Next to AngII, the mice were also given a second s.c. micro-osmotic pump filled with selected hit compound (83 μg/kg/h) or vehicle. Control groups (sham, compound alone, AngII alone) were also implemented. After 4 weeks of treatment, mice were euthanized and hearts were collected.
Hearts were fixed and embedded in paraffin. The LV interstitial collagen fraction was determined in Masson trichrome blue-stained areas. Cardiomyocyte outlines were stained with antibodies specific for laminin (NB300-144; Novus Biologicals), and cardiomyocyte cross-sectional area was determined by averaging 20 representative cardiomyocytes per section per animal (5 sections/animal). Data was skewed, therefore log transformation was performed. Endothelial cells were stained with isolectin B4 (Vector Laboratories) and capillary density was determined as the number of capillaries per 100 cardiomyocytes by averaging the number of capillaries per cardiomyocytes on 5 images per animal. Capillaries and cardiomyocytes were counted (by an investigator blinded to the treatment protocol) per section per animal (5 sections/animal). Capillaries were normalized to tissue area to calculate capillary density.

C57BL/6N mice = assay: In vivo acute toxicity study; conditions: accumulative i.p. doses, hematoxylin and eosin staining (FIG. 15)
Experimental: An acute toxicity study was performed on C57BL/6N mice using accumulative doses of compound 1 (n=3) or vehicle (n=3, 10% DMSO). On day 1, mice received 0.4 mg/kg cpd 1, day 2 1.2 mg/kg, day 3 4 mg/kg, day 4 4 mg/kg by intraperitoneal injection. At day 4, 1 hour after injection of 4 mg/kg, the mice were sacrificed and the hearts, liver, and kidney excised. The histology of the organs was evaluated by hematoxylin and eosin staining.

[1] = test system: Human atrial cardiac fibroblasts (HCF); assay: In vitro fibrosis assay, TGFβ-stimulated HCF (qRT-PCR); format: cell-based; conditions: TGFβ 10 ng/mL, 24 hours (FIG. 9)
Experimental: (§1) Human dermal fibroblasts (HDF, Cell applications, 106-05A) were cultured in Dulbecco's modified Eagle's medium (DMEM, ThermoFisher Scientific, 11995065) supplemented with 10% (v/v) heat-inactivated fetal bovine serum (FBS, ThermoFisher Scientific, 10082147), 1% penicillin/streptomycin and 1 mL polymyxin B and were maintained at 37° C. in humidified atmosphere of 5% CO2 in air. Human atrial cardiac fibroblasts (HCF, Innoprot, P10454) were cultured in fibroblast medium (Innoprot, P60108) supplemented with fetal bovine serum, fibroblast growth supplement and penicillin/streptomycin and were maintained at 37° C. in humidified atmosphere of 5% CO2 in air.
Following 1-9 passages, HDF and HCF were seeded at 0.3×10^6 cells/well in 1 mL cell medium in 12-well plates and incubated overnight at 37° C. in humidified atmosphere of 5% CO2 in air. Next, cells were put on serum starved medium (0.1% FBS) for 8 hours and then stimulated for 24 hours with either PBS, active compound (4-32 μM) or non-active compound (NA1, NA2; 4-32 μM) on top of TGFβ (10 ng/mL, Peprotech, 100-21). […] Next, cells were lysed using 100 μL lysis buffer RA1 (of RNA isolation kit below) supplemented with β-mercapto-ethanol (100:1), scraped with a cell scraper and transferred to centrifuge tubes to be stored at −20° C. for a maximum of 2 weeks before RNA isolation.
RNA was extracted using Nucleospin RNA XS (Machery Nagel) according to the manufacturer's instructions. For cDNA synthesis, total RNA was added to a solution containing buffer with random hexamers and reverse transcriptase enzyme. The PCR was performed using the following parameters: 10 minutes at 25° C., 30 minutes at 48° C., 5 minutes at 95° C. RT-qPCR on the cDNA samples was performed using Taqman Universal PCR Master Mix (Applied Biosystems) and Taqman primers according to the manufacturer's instructions. […] Expression levels were calculated using the comparative cycle method and expressed as fold change to appropriate (background) control. […]

[2] = test system: Human dermal fibroblasts (HDF); assay: In vitro fibrosis assay, TGFβ-stimulated HDF (qRT-PCR); format: cell-based; conditions: TGFβ 10 ng/mL, 4-32 μM (FIGS. 8C-8F)
Experimental: as §1
Following 1-9 passages, HDF and HCF were seeded at 0.3×10^6 cells/well in 1 mL cell medium in 12-well plates and incubated overnight at 37° C. in humidified atmosphere of 5% CO2 in air. Next, cells were put on serum starved medium (0.1% FBS) for 8 hours and then stimulated for 24 hours with either PBS, active compound (4-32 μM) or non-active compound (NA1, NA2; 4-32 μM) on top of TGFβ (10 ng/mL, Peprotech, 100-21). […]
RNA was extracted using Nucleospin RNA XS (Machery Nagel) according to the manufacturer's instructions. […] Expression levels were calculated using the comparative cycle method and expressed as fold change to appropriate (background) control. […]

[3] = Metabolic stability, human liver microsomes; format: in vitro ADME
Experimental: A mixture of 713 μL milliQ water (Millipore, MA, USA), 200 μL 0.5 M phosphate buffer (pH 7.4, BD Diagnostic Systems, MD, USA), 50 μL NADPH regenerating system solution A (BD Biosciences, CA, USA), 10 μL NADPH regenerating system solution B (BD Biosciences, CA, USA) and 2 μL compound (5 mM in DMSO) was prepared and heated for 5 min at 37° C. Twenty-five μL of liver microsomes (0.5 mg protein/mL, Corning B.V. Life Sciences, Amsterdam, Netherlands) was added to the mixture and 20 μL samples were withdrawn at 0, 0.25, 0.5 and 1, 2, 4, 6 and 24 hours. Eighty μL (4×20 μL) of cold acetonitrile (Sigma-Aldrich, MO, USA) was added to the samples on ice for 10 min. Afterwards, the mixtures were centrifuged at 13,000 rpm for 5 min at 4° C. Seventy-five μL of an acetonitrile/water (10/90) mixture was added to 25 μL supernatant and the obtained samples were analyzed by LC-MS/MS (Waters Acquity H-class UPLC system with ion trap mass spectrometer, Bruker Daltonics Esquire 3000 plus, and Agilent 1100 Series LC system) in triplicate.

O=C(NC1CC1)C(Sc1nc2ccccc2c(=O)n1C1CCCC1)c1ccccc1 (centres unmarked) [Compound 1]
capillary density compared to vehicle (C57BL/6N male mice; 4 weeks (FIG. 14D)): significantly increased capillary density
myocardial fibrosis compared to angiotensin II/vehicle (C57BL/6N male mice; AngII 1000 ng/kg/min + compound 83 μg/kg/h s.c. pump, 4 weeks (FIG. 14A)): significantly attenuated myocardial fibrosis
HW:BW ratio (C57BL/6N male mice; add-on to angiotensin II, 4 weeks (FIG. 14B)): no effect
cardiomyocyte cross sectional area compared to angiotensin II/vehicle (C57BL/6N male mice; add-on to angiotensin II, 4 weeks (FIG. 14C)): did increase
histology of heart, liver and kidney (treated vs control group) (C57BL/6N mice): no significant difference in structures of cardiac, liver and renal cells
col1a1 levels in comparison with TGFβ control [1]: significantly decrease col1a1 levels

CC(Sc1nc2ccccc2c(=O)n1C1CCCC1)c1nc2ccccc2n1C(F)F (centres unmarked) [Compound 7]
col3a1 levels in comparison with TGFβ control [1]: significantly decreases col3a1 levels
antifibrotic effect (col1a1 and col3a1 levels) [2]: significant dose-dependent antifibrotic effects

Cc1sc2nc(SC(C)C(=O)Nc3sccc3C(N)=O)n(CC(C)C)c(=O)c2c1C (centres unmarked) [Compound 6]
t1/2 human ([3]; human liver microsomes): 17 min
half-life at 10 µM ([3]; human, liver microsomes, pH 7.4, human liver microsomes, read-out: t1/2 human): 17 to 18 min
antifibrotic effect (col1a1 and col3a1 levels) [2]: significant dose-dependent antifibrotic effects
